Test system: Raji tumor-bearing nude mice
Assay: In vivo vasopermeability / biodistribution study, Raji lymphoma model (tumor uptake of 125I-Lym-1 F(ab')2 after pre-treatment)
Experimental: The Raji lymphoma cell line was used to produce heterotransplants in 6-week-old female nude mice by the subcutaneous injection of a 0.2 ml inoculum consisting of 4×10^7 Raji cells and 4×10^6 human fetal fibroblast feeder cells in the left thigh. Three days prior to injection, the mice were irradiated with 400 rads using a cesium irradiator to ensure a high take rate of the implanted cells. The tumors were grown for 14-18 days until they grew to approximately 1 cm in diameter.
To test the relative effects of the immunoconjugates on the biodistribution and tumor uptake of Lym-1 or TNT-1 in tumor-bearing mice, separate groups of 4-5 mice were given intravenous injections of 30 μg of antibody alone or antibody conjugate. At 2.5 hr after injection, each group received 50 μCi of ^125I-labeled Lym-1 or TNT-1 F(ab′)2 fragment as tracer.
All animals were sacrificed 72 hr later, by sodium pentobarbital overdose, for biodistribution analysis. Various organs, blood, and tumor were removed, weighed, and samples were counted in a gamma counter. For each mouse, data were expressed as tumor:organ ratio (cpm per gram tumor/cpm per gram organ) and percent injected dose/gram (% ID/g).

## 3C: synthetic IL-2 peptide, amino acids 22-58 (SEQ ID NO:1), permeability enhancing peptide (EMILNGINNYKNPKLTRMLTFKFYMPKKATELKHLQC; listed as Homo sapiens) [Fragment 3C]
i.v., enhanced Lym-1 uptake relative to Lym-1/IL-2 conjugate, 30-40 pM of peptide per assay
  Vasopermeability (% Lym-1/IL-2): 0 % Lym-1/IL-2

## E6: synthetic peptide fragment of human IL-2, amino acids 22-38 (QMILNGINNYKNPKLTR; UniProt P60568 42-58, looked up, fragment) [Fragment E6]
Intravenous administration
  Vasopermeability activity (in words): no activity

From US6737064B2, “Method for the diagnosis of neoplastic tissue comprising administering a vasopermeability enhancing peptide of human interleukin-2” (The University of Southern California, priority 1996, dated 2004)
